Test results as given in patent US20250109143A1, “KLF2 INDUCING DEUTERATED COMPOUNDS AND USES THEREOF” (Riparian Pharmaceuticals, Inc., priority 2023, published 2025).

Experiments:
[1] = test system: primary human endothelial cells expressing luciferase under the control of the KLF2 promoter; assay: KLF2 induction cell based bioassay (GLuc KLF2 concentration response, luciferase reporter); details: 24 hours incubation, 11-point concentration response; for IC50: 24 h, read-out: GLuc KLF2 Conc Response (IC50) Avg; for EC50: EC50 = concentration where normalized curve passes 0.5, read-out: GLuc KLF2 Conc Response (EC50) Ave
Description: In endothelial cell culture media, a stock of the highest working concentration was made at no more than 1% DMSO vehicle. The working stock was then serially diluted 1:2 to make an 11-point concentration response curve. Included in the 96-well plate were 2 reference compounds with known potencies. A DMSO column was included in the 96-well plate at the highest percent vehicle of the working stocks. The 96-well cell culture plate of primary human endothelial cells expressing luciferase under the control of the KLF2 promoter was dosed with 200 μL per well of the dilution series as well as the DMSO control column. The assay plate was incubated at 37° C. for 24 hours. The supernatant was collected at 24 hours.
20 μL of the supernatant was then placed in a 384-well plate with optical duplicates. The corners of the plate received 20 μL of the Gaussia Luciferase Enzyme positive control, as well as 20 μL of the 50 μM Coelenterizine substrate. The plate read is then calibrated using the control, and read using a Molecular Devices SpectraMax iD5, providing luminescence in relative light units (RLU). The plate reader injected 20 μL of the 50 μM Coelenterazine substrate immediately before taking the RLU measurement for each well.
The sample signals were then normalized to the average signal of the DMSO column, as well as to the maximum signal of one of the reference compounds, as shown in the equations below: […]
The EC50 of each compound is then defined as when the concentration response curve passes 0.5.

KLF2 = assay: qPCR KLF2 concentration response; format: cell-based; details: read-out: qPCR KLF2 Conc Response (EC50)

Structure (SMILES)	IC50 [1] [nM]	EC50 [1] [nM]	EC50 (KLF2) [nM]
COc1ccccc1CNC(=O)C1(C)COc2c(oc3ccccc23)C(=O)N1CC1(F)CCC1 (centres unmarked) [Example 2]	200	20	10
C#CCCN1C(=O)c2oc3ccccc3c2OCC1(C)C(=O)NCc1ccccc1OC (centres unmarked) [Example 5]	150	40	–
C#CCCN1C(=O)c2oc3ccccc3c2OC[C@]1(C)C(=O)NCc1ccccc1OC [Example 6]	70	20	10
COc1ccccc1CNC(=O)C1(C)COc2c(oc3ccccc23)C(=O)N1CC(C)(C)OC (centres unmarked) [Example 3]	340	60	10
